Measured values taken from the kinase profiling compilation of Christmann-Franck et al. (2016).
Each block holds one molecule with its values, some of them ahead of it.

Tests used:
Test in all cases: Caliper, Mobility shift assay off-chip
ROS1 (human) = ROS1 (human) (UniProt P08922)
MAPK1 (human) = MAPK1 (human) (UniProt P28482)
MKNK2 (human) = MKNK2 (human) (UniProt Q9HBH9)
GSG2 (human) = GSG2 (human) (UniProt Q8TF76)
HIPK3 (human) = HIPK3 (human) (UniProt Q9H422)
PIM3 (human) = PIM3 (human) (UniProt Q86V86)
PRKCD (human) = PRKCD (human) (UniProt Q05655)
[1] = system: FGFR2 (human), P21802 [N549H]
AURKA (human) = AURKA (human) (UniProt O14965)
AURKA (human), sequence (O14965 whole entry, looked up): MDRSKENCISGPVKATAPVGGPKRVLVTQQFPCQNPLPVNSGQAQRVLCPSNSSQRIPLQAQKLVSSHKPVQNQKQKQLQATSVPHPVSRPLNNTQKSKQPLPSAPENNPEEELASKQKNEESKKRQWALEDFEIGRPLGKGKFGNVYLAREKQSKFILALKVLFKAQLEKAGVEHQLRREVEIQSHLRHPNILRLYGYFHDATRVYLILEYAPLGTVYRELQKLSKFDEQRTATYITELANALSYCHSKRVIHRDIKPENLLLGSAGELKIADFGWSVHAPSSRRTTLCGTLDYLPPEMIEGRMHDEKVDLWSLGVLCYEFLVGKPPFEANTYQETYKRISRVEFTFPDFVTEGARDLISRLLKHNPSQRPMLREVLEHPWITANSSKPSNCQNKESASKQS

EPHA7 (human) = EPHA7 (human) (UniProt Q15375)
CSNK1G2 (human) = CSNK1G2 (human) (UniProt P78368)
EPHA1 (human) = EPHA1 (human) (UniProt P21709)
INSRR (human) = INSRR (human) (UniProt P14616)
ROCK2 (human) = ROCK2 (human) (UniProt O75116)
[2] = system: ABL1 (human), P00519 [T315I]
PKN2 (human) = PKN2 (human) (UniProt Q16513)
PKN2 (human), sequence (Q16513 whole entry, looked up): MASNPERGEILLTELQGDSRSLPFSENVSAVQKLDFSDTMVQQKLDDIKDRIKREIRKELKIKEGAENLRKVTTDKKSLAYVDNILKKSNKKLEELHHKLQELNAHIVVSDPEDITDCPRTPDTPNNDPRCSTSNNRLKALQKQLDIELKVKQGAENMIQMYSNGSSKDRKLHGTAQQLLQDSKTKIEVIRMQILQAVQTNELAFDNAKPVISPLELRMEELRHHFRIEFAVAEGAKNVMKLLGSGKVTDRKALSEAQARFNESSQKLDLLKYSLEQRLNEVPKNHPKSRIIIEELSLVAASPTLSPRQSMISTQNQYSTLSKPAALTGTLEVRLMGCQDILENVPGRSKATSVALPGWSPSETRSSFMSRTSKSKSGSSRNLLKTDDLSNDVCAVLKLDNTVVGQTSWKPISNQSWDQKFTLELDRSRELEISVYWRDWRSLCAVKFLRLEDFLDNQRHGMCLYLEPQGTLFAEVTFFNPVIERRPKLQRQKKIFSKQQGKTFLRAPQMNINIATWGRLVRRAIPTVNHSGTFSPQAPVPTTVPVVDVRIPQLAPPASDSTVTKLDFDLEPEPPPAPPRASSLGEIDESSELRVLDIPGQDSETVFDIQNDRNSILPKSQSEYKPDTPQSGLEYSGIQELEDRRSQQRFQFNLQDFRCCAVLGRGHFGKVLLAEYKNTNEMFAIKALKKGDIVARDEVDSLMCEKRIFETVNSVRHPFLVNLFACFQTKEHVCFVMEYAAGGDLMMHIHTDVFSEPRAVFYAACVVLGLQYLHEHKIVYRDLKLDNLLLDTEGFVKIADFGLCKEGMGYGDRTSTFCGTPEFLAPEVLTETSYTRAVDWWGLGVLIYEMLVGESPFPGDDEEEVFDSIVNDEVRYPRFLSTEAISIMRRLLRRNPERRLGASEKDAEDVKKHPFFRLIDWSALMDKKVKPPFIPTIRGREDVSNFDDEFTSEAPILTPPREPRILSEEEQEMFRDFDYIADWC

DAPK3 (human) = DAPK3 (human) (UniProt O43293)
DCLK2 (human) = DCLK2 (human) (UniProt Q8N568)
SRPK1 (human) = SRPK1 (human) (UniProt Q96SB4)
SRPK1 (human), sequence (Q96SB4 whole entry, looked up): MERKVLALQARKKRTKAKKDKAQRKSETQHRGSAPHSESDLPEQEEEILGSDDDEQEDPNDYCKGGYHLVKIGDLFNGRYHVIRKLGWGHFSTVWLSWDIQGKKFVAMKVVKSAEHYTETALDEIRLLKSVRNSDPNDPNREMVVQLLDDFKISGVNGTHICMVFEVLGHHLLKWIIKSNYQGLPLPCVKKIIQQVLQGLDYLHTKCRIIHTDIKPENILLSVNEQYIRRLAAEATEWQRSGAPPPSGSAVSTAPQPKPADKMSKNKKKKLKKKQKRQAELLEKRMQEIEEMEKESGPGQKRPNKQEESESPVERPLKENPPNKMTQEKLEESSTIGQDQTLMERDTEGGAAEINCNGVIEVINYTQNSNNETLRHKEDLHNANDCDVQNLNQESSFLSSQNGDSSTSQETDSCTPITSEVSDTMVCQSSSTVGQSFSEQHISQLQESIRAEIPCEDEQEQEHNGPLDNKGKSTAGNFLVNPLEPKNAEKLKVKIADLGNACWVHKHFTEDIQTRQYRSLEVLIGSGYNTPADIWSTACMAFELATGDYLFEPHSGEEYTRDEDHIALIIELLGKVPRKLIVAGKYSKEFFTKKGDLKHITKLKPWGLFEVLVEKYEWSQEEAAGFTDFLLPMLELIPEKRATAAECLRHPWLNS

AKT3 (human) = AKT3 (human) (UniProt Q9Y243)
GSK3A (human) = GSK3A (human) (UniProt P49840)
GSK3A (human), sequence (P49840 whole entry, looked up): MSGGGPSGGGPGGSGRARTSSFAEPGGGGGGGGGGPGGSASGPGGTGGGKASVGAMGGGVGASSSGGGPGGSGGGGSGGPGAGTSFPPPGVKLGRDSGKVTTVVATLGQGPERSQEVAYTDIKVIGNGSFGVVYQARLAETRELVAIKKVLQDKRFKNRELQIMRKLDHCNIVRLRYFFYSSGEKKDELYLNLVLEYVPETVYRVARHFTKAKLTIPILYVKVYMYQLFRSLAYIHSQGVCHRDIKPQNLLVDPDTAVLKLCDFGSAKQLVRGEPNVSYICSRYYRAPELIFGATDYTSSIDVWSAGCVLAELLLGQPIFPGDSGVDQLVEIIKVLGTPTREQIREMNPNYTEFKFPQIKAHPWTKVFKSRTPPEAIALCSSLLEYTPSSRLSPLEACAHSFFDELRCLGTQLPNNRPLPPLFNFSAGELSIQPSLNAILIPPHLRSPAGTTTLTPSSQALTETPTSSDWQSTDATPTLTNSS

BRSK1 (human) = BRSK1 (human) (UniProt Q8TDC3)
DDR2 (human) = DDR2 (human) (UniProt Q16832)
DDR2 (human), sequence (Q16832 whole entry, looked up): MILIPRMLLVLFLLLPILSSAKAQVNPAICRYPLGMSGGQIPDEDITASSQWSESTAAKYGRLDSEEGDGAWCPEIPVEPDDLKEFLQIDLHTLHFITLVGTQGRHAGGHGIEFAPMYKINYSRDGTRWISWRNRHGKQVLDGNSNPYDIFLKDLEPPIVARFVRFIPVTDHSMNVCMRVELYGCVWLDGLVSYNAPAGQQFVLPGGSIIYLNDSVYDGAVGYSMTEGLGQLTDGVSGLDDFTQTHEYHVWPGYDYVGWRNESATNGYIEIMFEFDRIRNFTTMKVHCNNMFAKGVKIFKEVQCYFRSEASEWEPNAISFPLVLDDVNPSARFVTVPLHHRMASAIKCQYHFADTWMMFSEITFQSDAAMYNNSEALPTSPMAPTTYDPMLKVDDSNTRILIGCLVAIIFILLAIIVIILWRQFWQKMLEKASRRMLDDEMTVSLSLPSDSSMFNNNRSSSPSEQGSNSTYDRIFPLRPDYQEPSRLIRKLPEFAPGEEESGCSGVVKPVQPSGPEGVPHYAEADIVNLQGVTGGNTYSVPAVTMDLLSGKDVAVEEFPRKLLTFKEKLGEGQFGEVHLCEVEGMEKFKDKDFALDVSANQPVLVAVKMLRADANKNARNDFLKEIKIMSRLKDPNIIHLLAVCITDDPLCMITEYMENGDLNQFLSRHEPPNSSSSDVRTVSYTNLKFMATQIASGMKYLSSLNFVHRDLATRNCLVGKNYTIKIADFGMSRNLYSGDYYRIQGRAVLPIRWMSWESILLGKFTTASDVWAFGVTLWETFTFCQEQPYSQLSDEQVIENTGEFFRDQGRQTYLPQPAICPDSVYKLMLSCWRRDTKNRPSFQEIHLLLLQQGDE

MYLK3 (human) = MYLK3 (human) (UniProt Q32MK0)
CHUK (human) = CHUK (human) (UniProt O15111)
MAP2K7 (human) = MAP2K7 (human) (UniProt O14733)
SRPK3 (human) = SRPK3 (human) (UniProt Q9UPE1)
MERTK (human) = MERTK (human) (UniProt Q12866)
YES1 (human) = YES1 (human) (UniProt P07947)
AKT2 (human) = AKT2 (human) (UniProt P31751)
PLK2 (human) = PLK2 (human) (UniProt Q9NYY3)
PRKX (human) = PRKX (human) (UniProt P51817)
LIMK1 (human) = LIMK1 (human) (UniProt P53667)
CSF1R (human) = CSF1R (human) (UniProt P07333)
HCK (human) = HCK (human) (UniProt P08631)
PDGFRA (human) = PDGFRA (human) (UniProt P16234)
PDGFRA (human), sequence (P16234 whole entry, looked up): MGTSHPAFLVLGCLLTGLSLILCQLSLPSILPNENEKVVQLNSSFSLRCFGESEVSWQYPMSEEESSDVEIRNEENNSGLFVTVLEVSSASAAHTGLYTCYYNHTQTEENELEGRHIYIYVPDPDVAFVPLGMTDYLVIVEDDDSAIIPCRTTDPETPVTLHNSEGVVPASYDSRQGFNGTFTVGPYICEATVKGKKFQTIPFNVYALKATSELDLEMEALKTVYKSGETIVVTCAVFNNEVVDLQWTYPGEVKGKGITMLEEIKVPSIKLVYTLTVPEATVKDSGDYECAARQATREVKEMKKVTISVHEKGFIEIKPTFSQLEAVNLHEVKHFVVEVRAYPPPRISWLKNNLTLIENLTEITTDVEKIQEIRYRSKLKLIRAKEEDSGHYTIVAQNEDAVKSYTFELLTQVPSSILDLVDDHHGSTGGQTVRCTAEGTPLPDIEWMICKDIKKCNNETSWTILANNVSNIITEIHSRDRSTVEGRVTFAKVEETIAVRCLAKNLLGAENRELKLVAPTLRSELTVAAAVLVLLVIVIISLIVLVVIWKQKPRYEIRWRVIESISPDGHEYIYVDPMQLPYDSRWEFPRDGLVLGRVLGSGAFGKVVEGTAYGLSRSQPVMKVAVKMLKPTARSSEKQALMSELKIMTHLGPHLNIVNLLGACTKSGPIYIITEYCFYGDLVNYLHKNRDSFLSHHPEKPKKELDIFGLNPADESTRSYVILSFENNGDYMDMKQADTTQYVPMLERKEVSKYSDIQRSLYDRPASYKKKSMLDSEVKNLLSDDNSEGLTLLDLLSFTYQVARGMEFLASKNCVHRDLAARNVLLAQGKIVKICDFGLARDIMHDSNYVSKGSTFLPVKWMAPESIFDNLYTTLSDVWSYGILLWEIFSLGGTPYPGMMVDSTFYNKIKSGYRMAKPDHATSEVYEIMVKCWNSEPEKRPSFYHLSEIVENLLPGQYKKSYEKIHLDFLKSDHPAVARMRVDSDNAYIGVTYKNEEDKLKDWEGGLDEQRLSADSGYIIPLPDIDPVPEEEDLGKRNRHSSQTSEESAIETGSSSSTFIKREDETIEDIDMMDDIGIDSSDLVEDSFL

STK4 (human) = STK4 (human) (UniProt Q13043)
GRK6 (human) = GRK6 (human) (UniProt P43250)
PRKCQ (human) = PRKCQ (human) (UniProt Q04759)
MAP3K9 (human) = MAP3K9 (human) (UniProt P80192)
TNK2 (human) = TNK2 (human) (UniProt Q07912); settings: compound 1.0 µM

MKNK2 (human), sequence (Q9HBH9 whole entry, looked up): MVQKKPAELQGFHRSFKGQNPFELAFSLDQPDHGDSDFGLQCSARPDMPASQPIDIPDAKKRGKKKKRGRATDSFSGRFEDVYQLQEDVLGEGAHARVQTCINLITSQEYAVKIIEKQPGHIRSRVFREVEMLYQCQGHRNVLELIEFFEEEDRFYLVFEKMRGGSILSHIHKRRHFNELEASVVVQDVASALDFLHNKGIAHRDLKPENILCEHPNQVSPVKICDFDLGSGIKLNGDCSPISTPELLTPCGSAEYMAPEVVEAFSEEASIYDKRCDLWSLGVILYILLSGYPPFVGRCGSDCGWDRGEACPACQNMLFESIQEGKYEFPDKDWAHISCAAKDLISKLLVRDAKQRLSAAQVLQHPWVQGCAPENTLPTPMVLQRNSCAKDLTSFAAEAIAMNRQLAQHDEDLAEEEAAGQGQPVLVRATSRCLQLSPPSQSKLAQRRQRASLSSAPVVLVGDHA

residual activity (ROS1 (human); compound 10.0 µM): 54%
residual activity (MAPK1 (human); compound 10.0 µM): 133%
residual activity (MKNK2 (human); compound 10.0 µM): 120%
residual activity (GSG2 (human); compound 10.0 µM): 0%
residual activity (HIPK3 (human); compound 10.0 µM): 90%
residual activity (PIM3 (human); compound 10.0 µM): 22%
residual activity (PRKCD (human); compound 10.0 µM): 134%
residual activity ([1]; compound 10.0 µM): 11%
residual activity (AURKA (human); compound 10.0 µM): 8%
residual activity (EPHA7 (human); compound 10.0 µM): 118%
residual activity (CSNK1G2 (human); compound 10.0 µM): 39%
residual activity (EPHA1 (human); compound 10.0 µM): 80%
residual activity (INSRR (human); compound 10.0 µM): 71%
residual activity (ROCK2 (human); compound 10.0 µM): 67%
residual activity ([2]; compound 10.0 µM): 62%
residual activity (PKN2 (human); compound 10.0 µM): 13%
residual activity (DAPK3 (human); compound 10.0 µM): 34%
residual activity (DCLK2 (human); compound 10.0 µM): 105%
residual activity (SRPK1 (human); compound 10.0 µM): 80%
residual activity (AKT3 (human); compound 10.0 µM): 26%
residual activity (GSK3A (human); compound 10.0 µM): 99%
residual activity (BRSK1 (human); compound 10.0 µM): 36%
residual activity (DDR2 (human); compound 10.0 µM): 57%
residual activity (MYLK3 (human); compound 10.0 µM): 29%
residual activity (CHUK (human); compound 10.0 µM): 36%
residual activity (MAP2K7 (human); compound 10.0 µM): 30%
residual activity (SRPK3 (human); compound 10.0 µM): 58%
residual activity (MERTK (human); compound 10.0 µM): 3%
residual activity (YES1 (human); compound 10.0 µM): 109%
residual activity (AKT2 (human); compound 10.0 µM): 15%
residual activity (PLK2 (human); compound 10.0 µM): 107%
residual activity (PRKX (human); compound 10.0 µM): 91%
residual activity (LIMK1 (human); compound 10.0 µM): 38%
residual activity (CSF1R (human); compound 10.0 µM): 17%
residual activity (HCK (human); compound 10.0 µM): 63%
residual activity (PDGFRA (human); compound 10.0 µM): 79%
residual activity (STK4 (human); compound 10.0 µM): 40%
residual activity (GRK6 (human); compound 10.0 µM): 108%
residual activity (PRKCQ (human); compound 10.0 µM): 57%
residual activity (MAP3K9 (human); compound 10.0 µM): 8%
Structure (SMILES): COc1ccc(C#Cc2ccc3ncc4ncn(-c5ccc(CCN)cc5)c4c3c2)cc1

residual activity (ROS1 (human); compound 1.0 µM): 98%
residual activity (MAPK1 (human); compound 1.0 µM): 99%
residual activity (MKNK2 (human); compound 1.0 µM): 30%
residual activity (GSG2 (human); compound 1.0 µM): 158%
residual activity (HIPK3 (human); compound 1.0 µM): 104%
residual activity (PIM3 (human); compound 1.0 µM): 96%
residual activity (PRKCD (human); compound 1.0 µM): 79%
residual activity ([1]; compound 1.0 µM): 23%
residual activity (AURKA (human); compound 1.0 µM): 7%
residual activity (EPHA7 (human); compound 1.0 µM): 102%
residual activity (CSNK1G2 (human); compound 1.0 µM): 101%
residual activity (TNK2 (human)): 32%
residual activity (EPHA1 (human); compound 1.0 µM): 99%
residual activity (INSRR (human); compound 1.0 µM): 104%
residual activity (ROCK2 (human); compound 1.0 µM): 29%
residual activity ([2]; compound 1.0 µM): 88%
residual activity (PKN2 (human); compound 1.0 µM): 10%
residual activity (DAPK3 (human); compound 1.0 µM): 57%
residual activity (DCLK2 (human); compound 1.0 µM): 112%
residual activity (SRPK1 (human); compound 1.0 µM): 104%
residual activity (AKT3 (human); compound 1.0 µM): 102%
residual activity (GSK3A (human); compound 1.0 µM): 107%
residual activity (BRSK1 (human); compound 1.0 µM): 29%
residual activity (DDR2 (human); compound 1.0 µM): 101%
residual activity (MYLK3 (human); compound 1.0 µM): 53%
residual activity (CHUK (human); compound 1.0 µM): 102%
residual activity (MAP2K7 (human); compound 1.0 µM): 107%
residual activity (SRPK3 (human); compound 1.0 µM): 115%
residual activity (MERTK (human); compound 1.0 µM): 8%
residual activity (YES1 (human); compound 1.0 µM): 63%
residual activity (AKT2 (human); compound 1.0 µM): 90%
residual activity (PLK2 (human); compound 1.0 µM): 72%
residual activity (PRKX (human); compound 1.0 µM): 103%
residual activity (LIMK1 (human); compound 1.0 µM): 67%
residual activity (CSF1R (human); compound 1.0 µM): 10%
residual activity (HCK (human); compound 1.0 µM): 31%
residual activity (PDGFRA (human); compound 1.0 µM): 74%
residual activity (STK4 (human); compound 1.0 µM): 30%
residual activity (GRK6 (human); compound 1.0 µM): 101%
residual activity (PRKCQ (human); compound 1.0 µM): 78%
residual activity (MAP3K9 (human); compound 1.0 µM): 1%
Structure (SMILES): C[C@@H](Nc1nc2c(C#CC3CC3)c[nH]c(=O)c2c2cc(-c3cn[nH]c3)ccc12)C(C)(C)C

residual activity (ROS1 (human); compound 1.0 µM): 95%
residual activity (MKNK2 (human); compound 1.0 µM): 86%
residual activity (PRKCD (human); compound 1.0 µM): 78%
residual activity (AURKA (human); compound 1.0 µM): 104%
residual activity (INSRR (human); compound 1.0 µM): 103%
residual activity (ROCK2 (human); compound 1.0 µM): 87%
residual activity ([2]; compound 1.0 µM): 86%
residual activity (PKN2 (human); compound 1.0 µM): 78%
residual activity (DAPK3 (human); compound 1.0 µM): 43%
residual activity (SRPK1 (human); compound 1.0 µM): 106%
residual activity (AKT3 (human); compound 1.0 µM): 90%
residual activity (GSK3A (human); compound 1.0 µM): 107%
residual activity (DDR2 (human); compound 1.0 µM): 107%
residual activity (CHUK (human); compound 1.0 µM): 96%
residual activity (MAP2K7 (human); compound 1.0 µM): 103%
residual activity (SRPK3 (human); compound 1.0 µM): 90%
residual activity (YES1 (human); compound 1.0 µM): 77%
residual activity (AKT2 (human); compound 1.0 µM): 94%
residual activity (PLK2 (human); compound 1.0 µM): 102%
residual activity (LIMK1 (human); compound 1.0 µM): 120%
residual activity (CSF1R (human); compound 1.0 µM): 55%
residual activity (HCK (human); compound 1.0 µM): 148%
residual activity (PDGFRA (human); compound 1.0 µM): 110%
residual activity (STK4 (human); compound 1.0 µM): 32%
residual activity (PRKCQ (human); compound 1.0 µM): 98%
Structure (SMILES): Cc1n[nH]c2c1c(=O)n(CCCN)c1ccc(Cl)cc21
